The values below are quoted from earlier work in US20060191043A1, “Low maintenance turfgrass” (priority 2004, published 2006).

The target of data set [1] is glyphosate-resistant EPSPS isolate having a single amino acid substitution of an alanine for the glycine at position 96 (Escherichia coli, UniProt P0A6D3, G96A). As to conditions: alanine for glycine at position 96, read-out: apparent Ki for glyphosate.
Data set [2] concerns the target native EPSPS from E. coli (Escherichia coli, UniProt P0A6D3). Particulars: read-out: apparent Km for PEP.

Chain of glyphosate-resistant EPSPS isolate having a single amino acid substitution of an alanine for the glycine at position 96 (P0A6D3 whole entry G96A): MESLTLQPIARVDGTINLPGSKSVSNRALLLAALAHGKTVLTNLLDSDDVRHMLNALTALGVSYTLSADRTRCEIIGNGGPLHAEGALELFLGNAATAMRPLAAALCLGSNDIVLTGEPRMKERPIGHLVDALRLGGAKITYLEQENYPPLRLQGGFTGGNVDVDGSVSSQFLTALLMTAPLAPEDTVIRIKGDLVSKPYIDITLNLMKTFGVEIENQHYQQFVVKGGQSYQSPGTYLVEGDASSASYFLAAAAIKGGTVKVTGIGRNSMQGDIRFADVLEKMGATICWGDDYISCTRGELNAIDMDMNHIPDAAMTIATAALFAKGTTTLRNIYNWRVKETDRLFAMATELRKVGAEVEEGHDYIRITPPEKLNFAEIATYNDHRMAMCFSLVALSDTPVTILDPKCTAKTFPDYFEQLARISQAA
Chain of native EPSPS from E. coli (P0A6D3 whole entry): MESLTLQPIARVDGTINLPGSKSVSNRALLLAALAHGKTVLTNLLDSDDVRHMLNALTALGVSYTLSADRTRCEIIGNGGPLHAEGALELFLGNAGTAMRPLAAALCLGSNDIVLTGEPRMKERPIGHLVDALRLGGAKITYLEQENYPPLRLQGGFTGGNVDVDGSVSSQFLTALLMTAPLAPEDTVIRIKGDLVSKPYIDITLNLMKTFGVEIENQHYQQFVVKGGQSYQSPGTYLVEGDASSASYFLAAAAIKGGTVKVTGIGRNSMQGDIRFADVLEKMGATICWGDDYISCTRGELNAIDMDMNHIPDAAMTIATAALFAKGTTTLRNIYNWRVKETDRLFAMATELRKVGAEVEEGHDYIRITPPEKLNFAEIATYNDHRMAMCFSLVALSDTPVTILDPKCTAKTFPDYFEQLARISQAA

As for `O=C(O)CNCP(=O)(O)O` [glyphosate, N-phosphonomethylglycine], the Ki in data set [1] is 4 mM.

For the compound `C=C(OP(=O)(O)O)C(=O)O` [PEP], the Km in data set [2] was 10 µM.

For orientation: Km means the concentration of substrate that gives half-maximal velocity.
